{"source": "patent US20260216166A1", "about": "“COMPOUND FOR TREATMENT OF ERECTILE DYSFUNCTION” (Initiator Pharma A/S, priority 2023, published 2026)", "key": {"anaesthetized rats": {"system": "anaesthetized rats", "assay": "Intracavernous pressure / spontaneous erections in anaesthetized rats", "format": "in vivo, rat", "description": "For in vivo erectile physiology studies, rats were anaesthetized with pentobarbital sodium (Sygehus Apoteket, Aarhus, Denmark; 50 mg/kg) given intraperitoneally. During the experiment, the rats breathed spontaneously; the body temperature was monitored continuously and was maintained at 37° C. With a midline incision in the perineum, the base of the penis, enclosed by striated muscles, was exposed. The ischiocavernous muscle covering the crus corpus cavernosum was divided on one side, and entrance to the underlying tunica albuginea was given. A 25-gauge needle attached to a heparinized (100 IE ml-1) polyethylene catheter was inserted into the crus corpus cavernosum to measure intracavernous pressure (ICP). A heparinized polyethylene catheter (PE 50) was introduced into the carotid artery to measure mean arterial pressure (MAP). Continuous direct measurements of MAP and ICP were performed with transducers (Disposable BP Transducer, ADInstruments, UK), and registered and analysed on a computerized data acquisition system (PowerLab, ADInstruments).\nA stabilizing period of 20-30 min was allowed before registration of basal ICP and MAP. Through a lower abdominal incision, the cavernous nerve was isolated at the lateral aspect of the prostate, and electrical stimulation was performed with a slender bipolar platinum electrode, which was connected to a S48 stimulator (Grass Instrument Co., Boston, MA, U.S.A.). To measure the maximum amplitude of the erectile response, a first stimulation of the cavernous nerve (square wave pulses of 6 Volts, 10 Hz, 1 ms pulse duration for 30 s) was performed.\nIP2015, sildenafil, clozapine or vehicle were administered by injection in the jugular vein in volumes of maximum 200 μl. […] The observation period of spontaneous erection after injection of IP2015 was 30 min. Clozapine (1 mg/kg) or sildenafil (1 mg/kg) were administered 30 or 10 min prior to 1 mg/kg IP2015 injection, respectively. One group was injected with vehicle alone.\nTo investigate the involvement of proximal neuronal pathways in the effect of IP2015, mechanical denervation was performed. For mechanical denervation the isolated cavernous nerve was cut distal to the major pelvic ganglion. Absence of erectile response to electrical stimulation verified the efficacy of mechanical denervation."}, "diabetic db/db mice": {"system": "diabetic db/db mice", "assay": "Erectile responses in type 2 diabetic db/db mice", "format": "in vivo, mouse", "settings": "intravenous infusion 1 mg/kg, n=7, versus vehicle", "description": "FIG. 1. Original traces show increased intracavernosal pressure induced by the cavernous nerve's electrical field stimulation (EFS). […] E-G) Frequency, duration, and magnitude of spontaneous erections after intravenous infusion of vehicle, IP2015 0.1 mg/kg, 1 mg/kg, or 10 mg/kg. The effect on EFS is reported in the supplementary data file. (H-J) Intravenous infusion of vehicle and IP2015 (1 mg/kg) in diabetic db/db mice. IP2015 increased H) frequency, I) duration and J) the magnitude of spontaneous erectile responses in db/db mice (n=7). The results are means±s.e.mean. *P<0.05 versus vehicle control.\nTo investigate the effects of IP2015 in a simple model of erectile dysfunction, before dissecting its underlying pharmacology in vivo, we assessed its effects in a type-2 diabetic mouse model. Type 2 diabetic db/db mice have decreased erectile function compared to normal C57BL/6 mice and heterozygous db/+ control mice."}, "[1]": {"assay": "Phase I ascending single oral dose pharmacokinetics in healthy male subjects", "format": "in vivo, human", "settings": "for half-life / Tmax: male, human, plasma", "description": "The study was a Phase I, randomised, double-blind, placebo-controlled, ascending single oral dose, safety, tolerability, pharmacokinetic (PK) and pharmacodynamics (PD) study of IP2015 in healthy male subjects.\nEach subject received one oral dose of IP2015 or matched placebo. The starting dose of IP2015 was 0.01 mg in Cohort 1. The dose level was to be escalated to a maximum of 0.05 mg in Cohort 2 and a maximum of 0.2 mg in Cohort 3. The doses in the remaining five cohorts were to be determined based on the dose escalation criteria. In every cohort, no more than 2 subjects were dosed on the first dosing day (1 active; 1 placebo) such that no more than 1 subject received an active IP2015 dose for the first time at each dose level.\nThe IP2015 or matched placebo was administered once on the morning of Day 1 as an oral solution in the fasted state. The dose was taken with 240 ml of water at room temperature. Subjects/participants were fasted overnight prior to dosing until 4 hours postdose. Water was allowed ad libitum except for 1 hour before and 1 hour after dosing.\nThe doses used in each cohort were as follows: • Cohort 1-0.01 mg • Cohort 2-0.05 mg • Cohort 3-0.2 mg • Cohort 4-0.6 mg • Cohort 5-1.8 mg • Cohort 6-5.4 mg • Cohort 7-16.2 mg • Cohort 8-10 mg\nThe study also evaluated plasma PK concentrations and parameters including but not limited to: area under the plasma concentration vs time curve (AUC), from time zero to the last quantifiable concentration (AUC0-t), AUC from zero to infinity (AUC0-∞), observed maximum plasma concentration (Cmax), time to reach maximum plasma concentration (tmax) and terminal elimination half-life (T½) in healthy male subjects. Blood samples for the determination of plasma concentrations of IP2015 were collected at predose, and 0.25, 0.5, 1, 1.5, 2, 3, 4, 6, 8, 12, 16, 24, 36 and 48 hours postdose.\nSafety parameters were listed and summarised using descriptive statistics. Pharmacokinetic parameter estimates were calculated using noncompartmental methods. Pharmacokinetic data were listed for each subject/patient and summarised by descriptive statistics.\nDose proportionality was analysed for Part A with a linear regression model using the logarithm of a PK parameter as responsible variable and the logarithm of the dose as the independent variable. The linear regression model can be expressed as: […]\nThe above model was applied to the following PK parameters; AUC0-t, AUC0-∞ and Cmax. Based on the linear regression model, the dose proportionality coefficient (slope) and its two-sided 90% confidence interval (CI) were estimated. Dose proportionality was declared if the 90% CI for the slope was completely contained in the following range 16: 1+log (0.5)/log (r), 1+log (2)/log (r), where r is the high dose/low dose."}, "[2]": {"settings": "0.2 to 16.2 mg single dose range"}}, "note": "“Also recorded” adds a separate entry of the source. Read-outs that look alike come from different tables or passages of the source.", "data": [{"compound": "COc1cc2ccc(OC3CC4CCC(C3)N4)cc2oc1=O", "note": "(stereo not shown) [IP2015, 7-[(8-azabicyclo[3.2.1]octan-3-yl)oxy]-3-methoxy-chromen-2-one]", "values": [{"measurement": "intracavernosal pressure", "setting": "anaesthetized rats; anaesthetized rats, 0.1, 1, and 10 mg/kg in the jugular vein, in contrast to vehicle", "value": "induced transient increases in intracavernosal pressure corresponding to erections; also recorded: dose-dependent increases in intracavernous pressure"}, {"measurement": "responses to electrical field stimulation (EFS) of the cavernous nerve", "setting": "anaesthetized rats; anaesthetized rats, IP2015 administration", "value": "without changing the responses to EFS"}, {"measurement": "magnitude of erectile responses, ICP increases as percentage of MAP", "setting": "anaesthetized rats; anaesthetized rats, compared to vehicle", "value": "significantly increased compared to vehicle"}, {"measurement": "frequency, duration, and magnitude of spontaneous erections", "setting": "anaesthetized rats; anaesthetized rats, i.v. 0.1, 1, 10 mg/kg", "value": "dose-dependently increased the number and the duration of spontaneous erections"}, {"measurement": "IP2015-induced erectile responses after cutting the cavernosal nerve", "setting": "anaesthetized rats; anaesthetized rats, mechanical denervation", "value": "inhibited"}, {"measurement": "penile pressure", "setting": "anaesthetized rats; direct intracavernosal injection", "value": "increased penile pressure"}, {"measurement": "frequency, duration, and magnitude of erectile responses", "setting": "diabetic db/db mice", "value": "significantly increased the frequency, duration, and magnitude of erectile responses; also recorded: increased the number of erections"}, {"measurement": "increase of systemic exposure with dose based on AUC0-t", "setting": "[1]; [2]", "value": "greater than dose-proportional manner"}, {"measurement": "increase of systemic exposure with dose based on AUC0-∞ and Cmax", "setting": "[1]; [2]", "value": "slightly more than dose-proportional manner"}, {"measurement": "subjects with plasma concentrations below the LLOQ", "setting": "[1]; healthy males, 0.2 mg", "value": "3/7"}, {"measurement": "plasma concentrations of IP2015", "setting": "[1]; healthy males, single oral 0.01 mg and 0.05 mg", "value": "below the LLOQ for all subjects"}, {"measurement": "half-life", "setting": "[1]; oral, healthy males, 0.6 mg, calculated for 1/6 subjects, read-out: mean t½ (converted)", "value": 14.5, "unit": "h"}, {"measurement": "half-life", "setting": "[1]; oral, healthy males, 1.8 mg, calculated for 3/6 subjects, read-out: mean t½ (converted)", "value": 16.1, "unit": "h"}, {"measurement": "Tmax", "setting": "[1]; oral, healthy males, across all dose levels, read-out: tmax range", "value": "1 to 6", "unit": "h"}, {"measurement": "half-life", "setting": "[1]; oral, healthy males, range of means across 5.4 mg to 16.2 mg doses, read-out: mean T½", "value": "23.1 to 26.3", "unit": "h"}, {"measurement": "Tmax", "setting": "[1]; healthy males, range of medians across single oral doses 0.2-16.2 mg, read-out: median tmax", "value": "2.25 to 5", "unit": "h"}]}]}
